The species named for assay [1] is Rattus norvegicus. Description: Selectivity ratio of IC50 for Wistar rat dopamine D2 receptor to IC50 for Wistar rat dopamine D1 receptor.
Assay [2] deals with D(1A) dopamine receptor (Rattus norvegicus, UniProt P18901). Description: Displacement of [3H]SCH23390 from dopamine D1 receptor in Wistar rat striatal membrane. It is filed as cell membranes, Striatum. In general terms: Displacement assays read how much labelled ligand stays bound in the presence of the test substance.
Sequence of D(1A) dopamine receptor (P18901 whole entry): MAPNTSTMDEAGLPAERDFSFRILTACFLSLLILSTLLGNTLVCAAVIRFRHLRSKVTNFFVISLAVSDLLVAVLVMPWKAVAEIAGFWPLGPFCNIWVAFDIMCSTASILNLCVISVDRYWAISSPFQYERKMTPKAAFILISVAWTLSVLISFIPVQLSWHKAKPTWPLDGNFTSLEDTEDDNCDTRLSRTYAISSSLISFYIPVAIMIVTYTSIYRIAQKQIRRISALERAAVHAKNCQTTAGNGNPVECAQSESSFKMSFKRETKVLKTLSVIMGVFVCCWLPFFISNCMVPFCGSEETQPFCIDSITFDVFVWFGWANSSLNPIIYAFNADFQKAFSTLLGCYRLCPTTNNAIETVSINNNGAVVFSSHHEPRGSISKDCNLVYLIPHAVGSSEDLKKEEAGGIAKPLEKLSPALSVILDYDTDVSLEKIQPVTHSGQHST
For assay [3], the target named is D(2) dopamine receptor (Rattus norvegicus, UniProt P61169). Description: Displacement of [3H]raclopride from dopamine D2 receptor in Wistar rat striatal membrane. It is filed as cell membranes, Striatum.
Sequence of D(2) dopamine receptor (P61169 whole entry): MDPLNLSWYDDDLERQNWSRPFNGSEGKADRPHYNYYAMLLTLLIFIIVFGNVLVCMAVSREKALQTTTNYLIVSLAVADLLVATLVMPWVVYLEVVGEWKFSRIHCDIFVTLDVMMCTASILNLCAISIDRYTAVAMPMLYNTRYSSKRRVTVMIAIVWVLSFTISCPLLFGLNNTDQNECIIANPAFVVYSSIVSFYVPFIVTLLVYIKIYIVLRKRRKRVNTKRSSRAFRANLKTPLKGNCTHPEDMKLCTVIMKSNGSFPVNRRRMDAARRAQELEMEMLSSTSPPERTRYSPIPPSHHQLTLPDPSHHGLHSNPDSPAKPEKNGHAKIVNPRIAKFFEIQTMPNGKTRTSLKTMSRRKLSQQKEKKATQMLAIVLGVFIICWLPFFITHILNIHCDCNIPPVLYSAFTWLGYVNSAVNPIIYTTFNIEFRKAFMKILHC
The species entered for assay [4] is Rattus norvegicus. Description: Selectivity ratio of IC50 for rat adrenergic alpha1A receptor to IC50 for adrenergic Alpha-1B receptor.
Assay [5] addresses T1, Alpha-1B adrenergic receptor (Rattus norvegicus, UniProt P15823).
T1 sequence (P15823 whole entry): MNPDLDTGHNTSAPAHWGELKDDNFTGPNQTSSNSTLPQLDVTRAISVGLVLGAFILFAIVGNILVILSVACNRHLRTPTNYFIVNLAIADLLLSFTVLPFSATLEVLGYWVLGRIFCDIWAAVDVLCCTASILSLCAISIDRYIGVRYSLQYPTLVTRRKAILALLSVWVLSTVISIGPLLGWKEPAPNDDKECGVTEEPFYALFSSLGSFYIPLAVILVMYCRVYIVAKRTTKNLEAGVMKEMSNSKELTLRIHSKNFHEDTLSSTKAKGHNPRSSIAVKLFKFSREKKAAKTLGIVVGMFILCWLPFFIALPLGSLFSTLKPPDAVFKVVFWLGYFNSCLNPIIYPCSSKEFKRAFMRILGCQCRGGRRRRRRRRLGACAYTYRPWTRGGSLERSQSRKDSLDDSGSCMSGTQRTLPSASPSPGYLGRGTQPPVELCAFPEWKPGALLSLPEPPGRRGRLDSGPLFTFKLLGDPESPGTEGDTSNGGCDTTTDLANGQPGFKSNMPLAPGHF
Description: Displacement of [3H]prazosin from adrenergic Alpha-1B receptor in rat brain membrane. It is filed as cell membranes.

The target in assay [6] is T2, Alpha-1A adrenergic receptor (Rattus norvegicus, UniProt P43140).
T2 sequence (P43140 whole entry): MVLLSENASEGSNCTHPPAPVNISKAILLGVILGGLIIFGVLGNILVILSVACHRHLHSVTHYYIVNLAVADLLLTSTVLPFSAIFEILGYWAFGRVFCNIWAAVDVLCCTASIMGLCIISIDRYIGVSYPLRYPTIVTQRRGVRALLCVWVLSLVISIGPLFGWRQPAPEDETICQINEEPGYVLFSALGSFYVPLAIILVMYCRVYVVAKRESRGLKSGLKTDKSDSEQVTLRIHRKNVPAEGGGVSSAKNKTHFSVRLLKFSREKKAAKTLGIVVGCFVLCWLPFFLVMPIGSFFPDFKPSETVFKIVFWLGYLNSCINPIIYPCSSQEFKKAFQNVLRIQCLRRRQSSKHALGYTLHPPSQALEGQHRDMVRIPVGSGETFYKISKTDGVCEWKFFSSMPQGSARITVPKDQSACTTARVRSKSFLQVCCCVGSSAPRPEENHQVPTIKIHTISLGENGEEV
Description: Displacement of [3H]prazosin from adrenergic alpha1A receptor in rat brain membrane. It is filed as cell membranes.

Experimental findings from ChEMBL document CHEMBL1154564 (J Nat Prod, 2000) are described below.

As to `COc1cc2c(cc1O)C[C@H]1c3c(c(Cl)c(O)c(OC)c3-2)CCN1C`, the Ratio IC50 in assay [1] was found to be 8.9. Besides, the IC50 (usually the point on the concentration scale where inhibition reaches its midpoint) in assay [2] came out at 81 nM; in assay [3] it was 720 nM. Also, in assay [4], the Ratio came to 122. Besides, the results for the inhibition constant Ki in assay [5] and in assay [6] were 269 nM and 2.24 nM, respectively.
With `COc1cc2c(c(Br)c1O)C[C@H]1c3c(c(Br)c(O)c(OC)c3-2)CCN1C`, the Ratio IC50 in assay [1] is 9.3. For the same compound, the IC50 in assay [2] is 206 nM; in assay [3] it was 1910 nM. In addition, in assay [4], the Ratio is 90. The Ki (usually a measure of affinity in units of concentration, obtained from inhibition or displacement) in assay [5] is 120 nM; in assay [6], 1.35 nM.
As for `COc1cc2c(cc1O)C[C@H]1c3c(cc(O)c(OC)c3-2)CCN1C` [BOLDINE], the inhibition constant (Ki) in assay [5] is 316 nM; in assay [6], 4.9 nM.
In the case of `COc1cc2c(cc1O)C[C@H]1c3c(c(I)c(O)c(OC)c3-2)CCN1C`, the Ratio IC50 in assay [1] came to 32. Moreover, the IC50 in assay [2] was determined as 3 nM; in assay [3], 96 nM.
Consider `COc1cc2c(cc1O)C[C@H]1c3c(c(Br)c(O)c(OC)c3-2)CCN1C` [3-BROMOBOLDINE], for which, in assay [1], the Ratio IC50 was 15.9. For the same compound, the IC50 in assay [2] was found to be 66 nM; in assay [3], 1050 nM. For the same compound, the Ratio in assay [4] is 120. Further, the figures for the Ki in assay [5] and in assay [6] were 135 nM and 1.17 nM, respectively.
